Data on two compounds can be found in US10172951B2, “Dendrimer based nanodevices for therapeutic and imaging purposes” (priority 2009, dated 2019).

The conditions of data set [1]: not told; cited from earlier work.
The nature of data set [2]: Transmembrane transport and permeability, chorioamnion. It counts as in vitro ADME, human. The settings on record: 0.3 mg/mL. From the text:
(§1) All human fetal membrane specimens were obtained at the time of cesarean section for obstetrical indications. The fetal membrane comprising chorioamniotic membrane (intact membranous tissue containing both amnion and chorion together) (n=7) and amnion (n=7) and chorion (n=7) were separately procured (size 6×9″). Each membrane was cut into 9 pieces for the 9 sets of diffusion chamber. The fresh membranes were collected immediately after the delivery, washed with PBS to remove the blood and stored in PBS until (˜1 h at 4° C.) it was mounted on the diffusion chamber (37±0.5° C.). Excess membranes were trimmed. The diffusion experiments were performed for 48 hours by mounting the membrane in the chamber to study the transport across the membranes. In all the experiments with chorioamniotic membrane the choriodecidua (maternal side) was placed facing the donor chamber and the amnionic epithelium (fetal side) was facing the receptor chamber. The chorion and amnion were mechanically separated by gently pulling the two membranes apart. For the chorion, the side attached to amnion was placed facing the receptor chamber and for the amnion the side attached to the chorion was placed facing the donor chamber in the diffusion apparatus. For histological evaluation, the tissue samples were collected at 0.5, 1, 2, 3 and 4 hours for and were fixed in 10% formalin overnight. Further, some sections were analyzed by hematoxylin and eosin (H & E) staining. The membrane thickness was measured using the Mitutoyo Super Caliper by placing the respective membranes between the two glass slides and subtracting the thickness of the glass slides without the membrane.
Permeation experiments were carried out using a two-chamber (donor and receptor) side-by-side Permegear diffusion cell with a chamber volume of 3 mL and with a diameter of 13 mm and a diffusional area of 1.32 cm^2. The fetal membranes (chorion and amnion together, amnion and chorion) each (n=9) were mounted between two halves of the donor and receptor cell (9 sets), which were further clamped together and sealed tightly with the rubber packing at the end of each glass chamber. […] The donor cell (volume 3 mL) was filled with solution of compounds whose permeability was evaluated. […] The concentration of compound in the receptor medium was determined using a Molecular Devices SpectroMax M2, UV visible and Fluorescent plate reader at ex 495/em 521. The cumulative amount of compound transported across the membrane in the receptor cell was determined using a calibration curve (a transport of 50% corresponds equilibrium achieved). […]
(§2) [formula] […] The thickness of the chorioamnion, chorion and amnion was 0.22 mm, 0.16 mm and 0.05 mm respectively (n=7), as measured with the help of Mitutoyo Super Caliper. […]

A short description of data set [3]: Transmembrane transport and permeability, amnion. It counts as in vitro ADME, human.
Text: as §1
(§3) Permeation experiments were carried out using a two-chamber (donor and receptor) side-by-side Permegear diffusion cell with a chamber volume of 3 mL and with a diameter of 13 mm and a diffusional area of 1.32 cm^2. The fetal membranes (chorion and amnion together, amnion and chorion) each (n=9) were mounted between two halves of the donor and receptor cell (9 sets), which were further clamped together and sealed tightly with the rubber packing at the end of each glass chamber. The receptor cell (volume 3 mL) was filled with sterile PBS (pH 7.4). The donor cell (volume 3 mL) was filled with solution of compounds whose permeability was evaluated. […] The system was maintained at 37° C. by using a circulating water bath and a jacket surrounding each cell. The donor and receiving medium was continuously stirred (600 rpm) with a magnetic bar to avoid stagnant aqueous diffusion layer effects. Aliquots (200 μL) were collected from the receptor cell every 30 min till first 6 hours and at predetermined intervals thereafter and replaced with equal volume of PBS to maintain sink conditions throughout the study. […] The concentration of compound in the receptor medium was determined using a Molecular Devices SpectroMax M2, UV visible and Fluorescent plate reader at ex 495/em 521. The cumulative amount of compound transported across the membrane in the receptor cell was determined using a calibration curve (a transport of 50% corresponds equilibrium achieved). All the experiments were conducted in dark room. All experiments were done in triplicate and the results are reported as mean±STDev.
[formula] To determine the permeability coefficient, P, a plot of −V/2A ln (1−2Ct/C0) against t was constructed and linear fitting was performed. The slope of the linear portion of the graph yields a permeability coefficient. The thickness of the chorioamnion, chorion and amnion was 0.22 mm, 0.16 mm and 0.05 mm respectively (n=7), as measured with the help of Mitutoyo Super Caliper. […] The FIGS. 93A-C and FIG. 94 show the plots used for calculation of the permeability and the correlation in all the cases ranged from 0.96 to 0.99.

Data set [4] is described as follows: Permeability across the rabbit amniotic membrane (side by side diffusion chamber). It is filed as in vitro ADME. The settings on record: in 1 hour, 37° C. As for the experimental part:
The permeability of the G4-PAMAM-FITC across the normal rabbit amniotic membrane and endotoxin treated rabbit amniotic membrane was studied using a side by side Permegear diffusion chamber at 37° C. for 48 hours. Endotoxin treated membranes were used to mimic the condition of E. coli infection in uterus. The freshly excised rabbit membranes obtained after sacrificing the rabbit was placed in between the donor and receptor chamber.

A short description of data set [5]: Transmembrane transport and permeability, chorion. It counts as in vitro ADME, human. The settings on record: 0.3 mg/mL.
Text: as §1, §3, §2

Data set [6] in a line: Brain biodistribution of FITC-G4-OH after subarachnoid/subdural injection (microscopy, HPLC). It counts as in vivo, rabbit. The settings on record: 24 hours after injection into CSF. On the procedure:
Animals in each group were euthanized 24 hours after subarachnoid administration of FITC-G4-OH with an overdose of pentobarbital (120 mg/kg administered intra-peritoneal). Following administration of the drug, animals were secured to a stainless steel surgical apparatus, the heart was exposed rapidly and a butterfly needle was inserted and secured in the left apex of the heart, the vena cava was incised and perfusion was initiated. Animals were perfused under pressure with 30 mL chilled physiological saline (0.9%) and 120 mL of 4% paraformaldehyde in phosphate buffer (0.1 M, pH 7.4) at a constant rate of 5 ml/min using a constant pressure pump, brains were removed and immersed in the same fixative for 48 hours, cryoprotected using graded solutions of sucrose and frozen at −80° C. until they were sectioned. […]
Brain tissue samples weighing approximately 1 mg were collected from healthy pups and CP pups and used for analysis. […] The samples were analyzed by HPLC and the amount of dendrimer-FITC quantified using the standard calibration curve for FITC-G4-OH. To estimate the fluorescence as a measure of concentration of FITC-G4-OH localized in hippocampus or cortex, the samples were analyzed by reverse phase-HPLC and the amount was quantified using the standard calibration curve for FITC-G4-OH. […]

Turning to `CC(C)(N)C(=O)O` [2-aminoisobutyrate], the in vitro permeability in data set [1] is recorded as 1.5×10^−6 cm^2/s.

Regarding “fluorescein isothiocyanate [FITC, reference compound]”, the “Permeability coefficient, Chorioamnion” value in data set [2] was 7.93×10^−7 cm^2/s. Also, the “Permeability coefficient, Amnion” value in data set [3] (0.3 mg/mL) is 2.26×10^−6 cm^2/s. In addition, the transport across amnion came to 49% in data set [3] (in 2 hours, 0.3 mg/mL) and 50% in data set [3] (in 5 hours). The same compound registered a crossed the membrane in data set [4] of 50%. For the same compound, the “Permeability coefficient, Chorion” value in data set [5] is given as 1.32×10^−6 cm^2/s. Besides, in data set [6], the “regional and cellular distribution in brain” value is “non-specific uptake in all layers of the cortex and ventricular region”.
